The text below walks through data of patent US8394828B2 (Janssen Pharmaceutica, NV, priority 2003, dated 2013).

The target of test [1] is T1, human VR1 (Homo sapiens, UniProt Q8NER1).
T1 construct: expressed in transfected cells; host or cells: HEK293
The test is described as follows: Human VR1 [3H] RTX binding assay. Particulars: 3H-RTX binding; for inhibition at 1 µM / 3H-RTX binding assay % Inhibition @ 1 μM: compound at 1 μM; for Ki: hVR1, read-out: 3H-RTX binding assay Ki hVR1. How it is done: Compounds of the present invention were tested for their ability to inhibit the binding of [^3H] RTX to hVR1 receptors in a [^3H]
HEK293 cells were transfected with human VR1 vanilloid receptors and washed with Hank's Balanced Salt Solution, dissociated with cell dissociation buffer (Sigma), and then centrifuged at 1000×g for 5 min. […] The pelleted membranes were kept in an −80° C. freezer.
Approximately 120 μg protein/ml from membranes were incubated with indicated concentrations of [^3H] RTX in 0.5 ml of the HEPES buffer (pH 7.4) containing 0.25 mg/mL fatty acid-free bovine serum albumin at 37° C. for 60 min. […] The tip of the microcentrifuge tube containing the pellet was cut off. Bound radioactivity was quantified by scintillation counting. Non-specific binding was tested in the presence of 200 nM unlabeled RTX.

In test [2] the target is T1, human VR1. Description: Human VR1 functional assay (intracellular Ca++, FLIPR, capsaicin challenge). Format: cell-based. The settings on record: hVR1, capsaicin challenge, read-out: FLIPR functional assay IC50 hVR1. Here is the method:
The functional activity of the test compounds was determined by measuring changes in intracellular calcium concentration using a Ca^++-sensitive fluorescent dye and FLIPR™ technology.
EC50 or IC50 values were determined from dose-response studies.

T1 sequence (Q8NER1 whole entry): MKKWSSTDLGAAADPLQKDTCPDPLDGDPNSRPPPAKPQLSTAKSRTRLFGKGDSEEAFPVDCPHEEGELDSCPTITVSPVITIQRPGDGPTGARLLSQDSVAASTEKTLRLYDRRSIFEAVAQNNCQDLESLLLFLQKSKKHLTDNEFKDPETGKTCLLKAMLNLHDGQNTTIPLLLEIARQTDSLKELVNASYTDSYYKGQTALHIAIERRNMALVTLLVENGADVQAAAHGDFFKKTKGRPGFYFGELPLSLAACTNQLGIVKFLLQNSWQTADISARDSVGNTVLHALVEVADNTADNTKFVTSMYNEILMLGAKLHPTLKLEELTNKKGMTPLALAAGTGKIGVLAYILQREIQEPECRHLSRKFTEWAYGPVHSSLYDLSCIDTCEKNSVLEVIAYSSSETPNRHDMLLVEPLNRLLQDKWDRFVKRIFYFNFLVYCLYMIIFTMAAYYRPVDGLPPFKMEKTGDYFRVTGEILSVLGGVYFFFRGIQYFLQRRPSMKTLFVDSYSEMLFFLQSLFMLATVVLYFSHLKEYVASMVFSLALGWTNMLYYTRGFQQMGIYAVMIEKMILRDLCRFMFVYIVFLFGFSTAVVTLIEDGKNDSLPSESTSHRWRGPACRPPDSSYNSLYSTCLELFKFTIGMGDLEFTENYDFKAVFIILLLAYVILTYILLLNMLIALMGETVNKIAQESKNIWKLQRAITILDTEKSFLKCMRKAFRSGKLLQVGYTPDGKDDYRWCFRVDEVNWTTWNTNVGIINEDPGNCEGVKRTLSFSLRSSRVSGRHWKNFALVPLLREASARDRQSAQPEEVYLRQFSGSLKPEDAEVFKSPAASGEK

As usually defined, the inhibition is the change of the read-out against control, counted positive when it falls. Broadly, the Ki is a dissociation constant, usually derived from enzyme kinetics or from competition with a known ligand. Consider `CN(CC=Cc1ccccc1)c1ccc(C(=O)Nc2cnc3ccccc3c2)cc1` [4-{Methyl-(3-phenyl-allyl)-amino}-N-quinolin-3-yl-benzamide], for which, on human VR1 [1], the inhibition at 1 µM turned out to be 79% and the Ki stood at 125 nM.

Broadly, the IC50 is the point on the concentration scale where inhibition reaches its midpoint. Regarding `CC1(C)CCC(C)(C)c2cc(C=CC(=O)Nc3cnc4ccccc4c3Cl)ccc21` [N-(4-Chloro-quinolin-3-yl)-3-(5,5,8,8-tetramethyl-5,6,7,8-tetrahydro-naphthalen-2-yl)-acrylamide], at human VR1 [2], the IC50 amounted to 30 nM.

`CC(C)(CCc1ccccc1)c1ccc(CCC(=O)Nc2cnc3ccccc3c2)cc1` [3-{4-(1,1-Dimethyl-3-phenyl-propyl)-phenyl}-N-quinolin-3-yl-propionamide]: the Ki at human VR1 [1] was 15.9 nM.

Turning to `O=C(Nc1cnc2ccccc2c1)c1ccc(N(CCc2ccccc2)CC2CCCCC2)cc1` [4-(Cyclohexylmethyl-phenethyl-amino)-N-quinolin-3-yl-benzamide], on human VR1 [1], the inhibition at 1 µM came out at 87% and the Ki was determined as 162 nM.

As to `CCCCC(C)(C)c1ccc(C=CCC(=O)Nc2cnc3ccccc3c2)cc1` [4-{4-(1,1-Dimethyl-pentyl)-phenyl}-but-3-enoic acid quinolin-3-ylamide], at human VR1 [1], the inhibition at 1 µM was 80% and the Ki was determined as 194 nM.

On to `O=C(Nc1cnc2ccccc2c1)c1ccc(NC2CCOCC2)cc1` [N-Quinolin-3-yl-4-(tetrahydro-pyran-4-ylamino)-benzamide], for which the inhibition at 1 µM on human VR1 [1] amounted to 9%.

Turning to `O=C(Nc1cnc2ccccc2c1)c1ccc(N2CCC(N3CCCCC3)CC2)cc1` [4-[1,4′]Bipiperidinyl-1′-yl-N-quinolin-3-yl-benzamide], the inhibition at 1 µM on human VR1 [1] worked out at 8%.

Take `CC(C)(C)c1ccc(C#CC(=O)Nc2cnc3ccccc3c2)cc1` [3-(4-tert-Butyl-phenyl)-propynoic acid quinolin-3-ylamide]: the IC50 on human VR1 [2] worked out at 66 nM.

As for `O=C(Nc1cnc2ccccc2c1)c1ccc(N2CCOCC2)cc1` [4-Morpholin-4-yl-N-quinolin-3-yl-benzamide], the inhibition at 1 µM at human VR1 [1] turned out to be 4%.

In the case of `CC(C)=CCC[C@@H](C)CCN(C)c1ccc(C(=O)Nc2cnc3ccccc3c2)cc1` [R-4-{(3,7-Dimethyl-oct-6-enyl)-methyl-amino}-N-quinolin-3-yl-benzamide], at human VR1 [1], the inhibition at 1 µM turned out to be 105% and the Ki stood at 11.1 nM.

For the compound `CCC(C)(C)c1ccc(CCCC(=O)Nc2cnc3ccccc3c2)cc1` [4-{4-(1,1-Dimethyl-propyl)-phenyl}-N-quinolin-3-yl-butyramide], on human VR1 [1], the inhibition at 1 µM turned out to be 65% and the Ki is 527 nM.

As to `O=C(Nc1cnc2ccccc2c1)c1ccc(NCC2CCCCC2)cc1Cl` [2-Chloro-4-(cyclohexylmethyl-amino)-N-quinolin-3-yl-benzamide], on human VR1 [1], the inhibition at 1 µM worked out at 65% and the Ki was found to be 1130 nM.

As to `CC1(C)CCC(C)(C)c2cc(C=CC(=O)Nc3cnc4ccccc4c3)ccc21` [N-Quinolin-3-yl-3-(5,5,8,8-tetramethyl-5,6,7,8-tetrahydro-naphthalen-2-yl)-acrylamide], the IC50 at human VR1 [2] was found to be 65 nM.

Turning to `O=C(Nc1cnc2ccccc2c1)c1ccc(N2Cc3ccccc3C2)cc1` [4-(1,3-Dihydro-isoindol-2-yl)-N-quinolin-3-yl-benzamide], the inhibition at 1 µM at human VR1 [1] was 1%.

Regarding `CC(C)(C)c1ccc(CCC(=O)Nc2cnc3ccccc3c2)cc1` [3-(4-tert-Butyl-phenyl)-N-quinolin-3-yl-propionamide], the Ki on human VR1 [1] came to 2.03 nM.

In the case of `O=C(Nc1cnc2ccccc2c1)c1ccc(N2CCC(C(=O)c3ccccc3)CC2)cc1` [4-(4-Benzoyl-piperidin-1-yl)-N-quinolin-3-yl-benzamide], at human VR1 [1], the inhibition at 1 µM was determined as 61% and the Ki was 276 nM.

Turning to `O=C(Nc1cnc2ccccc2c1)c1ccc(N2CC[C@@H]3CCCC[C@H]3C2)cc1` (relative stereo) [trans-4-(Octahydro-isoquinolin-2-yl)-N-quinolin-3-yl-benzamide], at human VR1 [1], the inhibition at 1 µM was 104% and the inhibition constant Ki was determined as 29.2 nM.

For `CCCCCN(CCCCC)c1ccc(C(=O)Nc2cnc3ccccc3c2)cc1` [4-Dipentylamino-N-quinolin-3-yl-benzamide], the Ki at human VR1 [1] was determined as 158 nM.

As for `O=C(Nc1cnc2ccccc2c1)c1ccc(NC2CCCCCC2)cc1` [4-Cycloheptylamino-N-quinolin-3-yl-benzamide], the 50% inhibitory concentration (IC50) on human VR1 [2] came out at 730 nM.

`O=C(Nc1cnc2ccccc2c1)c1ccc(N2CCCCC2)nc1` [3,4,5,6-Tetrahydro-2H-{1,2′}bipyridinyl-5′-carboxylic acid q] [3,4,5,6-Tetrahydro-2H-{1,2′}bipyridinyl-5′-carboxylic acid quinolin-3-ylamide]: the “3H-RTX binding assay % Inhibition @ 1 μM” value on human VR1 [1] is reported as 100%.

As for `O=C(Nc1cnc2ccccc2c1)c1ccc(N2CCCC2)cc1` [4-Pyrrolidin-1-yl-N-quinolin-3-yl-benzamide], at human VR1 [1], the inhibition at 1 µM is 27%.

For the compound `CCCCCN(Cc1ccccc1)c1ccc(C(=O)Nc2cnc3ccccc3c2)cc1` [4-(Benzyl-pentyl-amino)-N-quinolin-3-yl-benzamide], at human VR1 [1], the inhibition at 1 µM was determined as 67% and the Ki worked out at 169 nM.

In the case of `CCCCCNc1ccccc1C(=O)Nc1cnc2ccccc2c1` [2-Pentylamino-N-quinolin-3-yl-benzamide], on human VR1 [1], the inhibition at 1 µM came out at 23%.

Turning to `O=C(Nc1cnc2ccccc2c1)c1ccc(N2CCSCC2)cc1` [N-Quinolin-3-yl-4-thiomorpholin-4-yl-benzamide], the inhibition at 1 µM on human VR1 [1] is 41%.

In the case of `CCCCCCCN(C)c1ccccc1C(=O)Nc1cnc2ccccc2c1` [2-(Heptyl-methyl-amino)-N-quinolin-3-yl-benzamide], the inhibition at 1 µM at human VR1 [1] worked out at 0%.

Turning to `CC(C)(C)c1ccc(C=CC(=O)Nc2cnc3ccccc3c2)cc1` [3-(4-tert-Butyl-phenyl)-N-quinolin-3-yl-acrylamide], the Ki at human VR1 [1] was determined as 1.11 nM.

Turning to `CN(c1ccc(C(=O)Nc2cnc3ccccc3c2)cc1)C1CCOCC1` [4-{Methyl-(tetrahydro-pyran-4-yl)-amino}-N-quinolin-3-yl-benzamide], on human VR1 [1], the inhibition at 1 µM turned out to be 19%.

With `CC(C)(C)c1ccc(CC(=O)Nc2cnc3ccccc3c2)cc1` [2-(4-tert-Butyl-phenyl)-N-quinolin-3-yl-acetamide], the Ki at human VR1 [1] turned out to be 5760 nM.

On to `CCCCCN(C)c1ccc(CC(=O)Nc2cnc3ccccc3c2)cc1` [2-{4-(Methyl-pentyl-amino)-phenyl}-N-quinolin-3-yl-acetamide], for which, at human VR1 [1], the Ki was 1350 nM.

As for `O=C(Nc1cnc2ccccc2c1)c1ccc(N2CCCCC2)nc1` [3,4,5,6-Tetrahydro-2H-[1,2′]bipyridinyl-5′-carboxylic acid q] [3,4,5,6-Tetrahydro-2H-[1,2′]bipyridinyl-5′-carboxylic acid quinolin-3-ylamide], the “3H-RTX binding assay % Inhibition @ 1 μM” value at human VR1 [1] came to 1%.

Turning to `O=C(Nc1cnc2ccccc2c1)c1ccc(N2CCCCC2)cc1` [4-Piperidin-1-yl-N-quinolin-3-yl-benzamide], at human VR1 [1], the inhibition at 1 µM is 60% and the Ki was 61.2 nM.

In the case of `O=C(Nc1cnc2ccccc2c1)c1ccc(N2CCC(c3ccccc3)CC2)cc1` [4-(4-Phenyl-piperidin-1-yl)-N-quinolin-3-yl-benzamide], at human VR1 [1], the inhibition at 1 µM was 34% and the Ki was determined as 29300 nM.

`CC1(C)CCC(C)(C)c2cc(C(=O)Nc3cnc4ccccc4c3)ccc21` [5,5,8,8-Tetramethyl-5,6,7,8-tetrahydro-naphthalene-2-carboxylic acid quinolin-3-ylamide]: at human VR1 [1], the Ki came to 30.4 nM.

With `CCCCCN(CCCCC)c1ccc(CCC(=O)Nc2cnc3ccccc3c2)cc1` [3-(4-Dipentylamino-phenyl)-N-quinolin-3-yl-propionamide], at human VR1 [1], the Ki was determined as 153 nM.

On to `CCCCCN(C)c1ccccc1C(=O)Nc1cnc2ccccc2c1` [2-(Methyl-pentyl-amino)-N-quinolin-3-yl-benzamide], for which the inhibition at 1 µM on human VR1 [1] amounted to 21%.

For the compound `CCCCCc1ccc(CC(=O)Nc2cnc3ccccc3c2)cc1` [2-(4-Pentyl-phenyl)-N-quinolin-3-yl-acetamide], the Ki on human VR1 [1] is 2200 nM.

For `CCCCCN(C)c1ccc(C=CC(=O)Nc2cnc3ccccc3c2)cc1` [3-{4-(Methyl-pentyl-amino)-phenyl}-N-quinolin-3-yl-acrylamide], on human VR1 [1], the inhibition at 1 µM turned out to be 65% and the inhibition constant Ki came out at 122 nM.

As for `CCCCCN(CCCCC)c1ccc(CC(=O)Nc2cnc3ccccc3c2)cc1` [2-(4-Dipentylamino-phenyl)-N-quinolin-3-yl-acetamide], the Ki on human VR1 [1] was determined as 508 nM.

With `CC1CCCN(c2ccc(C(=O)Nc3cnc4ccccc4c3)cc2)C1` (stereo not drawn) [4-(3-Methyl-piperidin-1-yl)-N-quinolin-3-yl-benzamide], the inhibition at 1 µM on human VR1 [1] amounted to 78%.

Turning to `CN(c1cccc(C(=O)Nc2cnc3ccccc3c2)c1)C1CCCCC1` [3-(Cyclohexyl-methyl-amino)-N-quinolin-3-yl-benzamide], on human VR1 [1], the inhibition at 1 µM was 89% and the Ki stood at 98.2 nM.

On to `CCC(C)(C)c1ccc(CCC(=O)Nc2cnc3ccccc3c2)s1` [3-{5-(1,1-Dimethyl-propyl)-thiophen-2-yl}-N-quinolin-3-yl-propionamide], for which the inhibition constant Ki at human VR1 [1] came out at 14.2 nM.

`Cc1cc(C(=O)Nc2cnc3ccccc3c2)ccc1NCC1CCCCC1` [4-(Cyclohexylmethyl-amino)-3-methyl-N-quinolin-3-yl-benzamide]: at human VR1 [1], the inhibition at 1 µM was 111% and the Ki stood at 87 nM.

Turning to `O=C(Nc1cnc2ccccc2c1)c1ccc(N2CCC3(CC2)OCCO3)cc1` [4-(1,4-Dioxa-8-aza-spiro[4.5]dec-8-yl)-N-quinolin-3-yl-benzamide], the inhibition at 1 µM at human VR1 [1] is 9%.
